Results reported in patent publication US20230271950A1, “ANTIBACTERIAL PICOLINAMIDE COMPOUNDS” (University of Notre Dame Du Lac, priority 2020, published 2023).
Values after ≈ are worked out from the molar mass of the structure shown. Where two headings read alike, the source gives them in different places.

Legend:
Bacteroides fragilis = assay: MIC against gut bacterium Bacteroides fragilis; format: cell-based; settings: Bacteroides fragilis, Bacteroides fragilis strain HM-709; Table 7; read-out: MIC
MRSA (NRS70, NRS119) = assay: MIC against MRSA strains; format: cell-based, Staphylococcus aureus; settings: Staphylococcus aureus
Fusobacterium nucleatum = assay: MIC against gut bacterium Fusobacterium nucleatum; format: cell-based; settings: Fusobacterium nucleatum, Fusobacterium nucleatum strain HM-992; Table 7; read-out: MIC
E. faecium NCTC7171 = assay: MIC against E. faecium; format: cell-based, Enterococcus faecium; settings: Enterococcus faecium, NCTC7171; E. faecium NCTC 7171; Table 10, unit inferred; read-out: Activity (MIC) against E. faecium
Lactobacillus gasseri = assay: MIC against gut bacterium Lactobacillus gasseri; format: cell-based; settings: Lactobacillus gasseri strain HM-644; Table 7; read-out: MIC
C. difficile = assay: MIC by broth microdilution against C. difficile strains; format: cell-based, Clostridioides difficile; settings: for MIC: Clostridioides difficile
S. aureus ATCC29213 = assay: MIC against MSSA; format: cell-based, Staphylococcus aureus; settings: Staphylococcus aureus; MSSA ATCC 29213; Table 10, unit inferred; read-out: Activity (MIC) against S. aureus
Bifidobacterium longum = assay: MIC against gut bacterium Bifidobacterium longum; format: cell-based; settings: Bifidobacterium longum, Bifidobacterium longum strain HM-846; Table 7; read-out: MIC
Lactobacillus reuteri = assay: MIC against gut bacterium Lactobacillus reuteri; format: cell-based; settings: Limosilactobacillus reuteri; Lactobacillus reuteri strain HM-102; Table 7; read-out: MIC
Eubacterium sp. = assay: MIC against gut bacterium Eubacterium sp.; format: cell-based; settings: Eubacterium, Eubacterium sp. strain HM-178; Table 7; read-out: MIC
Veillonella sp. HM-49 = assay: MIC against gut bacterium Veillonella sp.; format: cell-based; settings: SP.HM49; Veillonella sp. strain HM-49; Table 7; read-out: MIC
Corynebacterium spp. = assay: MIC against gut bacterium Corynebacterium spp.; format: cell-based; settings: Corynebacterium, Corynebacterium spp. strain HM-784; Table 7

O=C(Nc1ncco1)c1cc(-c2ccc(Cl)c(Cl)c2)ccn1 [Compound 87, 4-(3,4-Dichlorophenyl)-N-(oxazol-2-yl)picolinamide]
MIC (Bacteroides fragilis): 4 µg/mL (≈ 12 µM) | MIC (MRSA (NRS70, NRS119); MRSA NRS70, Table 7, read-out: MIC): 128 µg/mL (≈ 383 µM) | MIC (MRSA (NRS70, NRS119); MRSA strain NRS70, read-out: MIC against MRSA): 128 µg/mL (≈ 383 µM) | MIC (MRSA (NRS70, NRS119); NRS70 strain, Table 3 (SAR^2 and SAR^3), read-out: MIC MRSA): 128 µg/mL (≈ 383 µM) | MIC (Fusobacterium nucleatum): 8 µg/mL (≈ 23.9 µM) | MIC (E. faecium NCTC7171): ≥ 128 µg/mL | MIC (Lactobacillus gasseri): > 16 µg/mL | MIC (C. difficile; ATCC43255, ATCC 43255, ribotype 087, Table 3 (SAR^2 and SAR^3), read-out: MIC C. difficile): 0.125 µg/mL (≈ 0.374 µM) | MIC (C. difficile; ATCC43255, C. difficile ATCC43255, Table 7, read-out: MIC): 0.125 µg/mL (≈ 0.374 µM) | MIC (C. difficile; ATCC43255, C. difficile ATCC 43255, read-out: MIC against C. difficile): 0.125 µg/mL (≈ 0.374 µM) | MIC (C. difficile; ATCC43598, C. difficile ATCC43598, Table 7, read-out: MIC): 0.25 µg/mL (≈ 0.748 µM) | MIC (C. difficile; BAA1801, C. difficile BAA-1801, Table 7, read-out: MIC): 0.25 µg/mL (≈ 0.748 µM) | MIC (C. difficile; BAA1803, C. difficile BAA-1803, Table 7, read-out: MIC): 0.25 µg/mL (≈ 0.748 µM) | MIC (C. difficile; BAA1804, C. difficile BAA-1804, Table 7, read-out: MIC): 0.125 µg/mL (≈ 0.374 µM) | MIC (C. difficile; BAA1812, C. difficile BAA-1812, Table 7, read-out: MIC): 0.25 µg/mL (≈ 0.748 µM) | MIC (C. difficile; BAA1814, C. difficile BAA-1814, Table 7, read-out: MIC): 0.125 µg/mL (≈ 0.374 µM) | MIC (C. difficile; BAA1870, C. difficile BAA-1870, Table 7, read-out: MIC): 0.25 µg/mL (≈ 0.748 µM) | MIC (C. difficile; C. difficile 23691 (VR, vancomycin-resistant), Table 7, read-out: MIC): 0.5 µg/mL (≈ 1.5 µM) | MIC (C. difficile; C. difficile 23828 (FR, fidaxomicin-resistant), Table 7, read-out: MIC): 0.25 µg/mL (≈ 0.748 µM) | MIC (C. difficile; C. difficile 24531 (VR, vancomycin-resistant), Table 7, read-out: MIC): 0.25 µg/mL (≈ 0.748 µM) | MIC (C. difficile; C. difficile 24923 (VR, vancomycin-resistant), Table 7, read-out: MIC): 0.5 µg/mL (≈ 1.5 µM) | MIC (C. difficile; C. difficile 26675 (MR, metronidazole-resistant), Table 7, read-out: MIC): 0.5 µg/mL (≈ 1.5 µM) | MIC (C. difficile; C. difficile 27081 (FR, fidaxomicin-resistant), Table 7, read-out: MIC): 0.5 µg/mL (≈ 1.5 µM) | MIC (C. difficile; C. difficile 27173 (MR, metronidazole-resistant), Table 7, read-out: MIC): 0.5 µg/mL (≈ 1.5 µM) | MIC (C. difficile; C. difficile NR49292, Table 7, read-out: MIC): 0.25 µg/mL (≈ 0.748 µM) | MIC (C. difficile; C. difficile NR49294, Table 7, read-out: MIC): 0.25 µg/mL (≈ 0.748 µM) | MIC (C. difficile; C. difficile NR49302, Table 7, read-out: MIC): 0.25 µg/mL (≈ 0.748 µM) | MIC (C. difficile; C. difficile NR49305, Table 7, read-out: MIC): 0.25 µg/mL (≈ 0.748 µM) | MIC (C. difficile; C. difficile NR49310, Table 7, read-out: MIC): 0.125 µg/mL (≈ 0.374 µM) | MIC (C. difficile; C. difficile NR49318, Table 7, read-out: MIC): 0.25 µg/mL (≈ 0.748 µM) | MIC (C. difficile; C. difficile, Table 8, read-out: MIC): 0.125 µg/mL (≈ 0.374 µM) | Selectivity (C. difficile; MIC MRSA NRS70/MIC C. difficile ATCC43255, Table 7): 1024 | Selectivity (C. difficile; MIC MRSA/MIC C. difficile, Table 3): 1024 | Selectivity (C. difficile; Table 8): 1024 | MIC (S. aureus ATCC29213): ≥ 128 µg/mL | MIC (Bifidobacterium longum): > 16 µg/mL | MIC (Lactobacillus reuteri): 4 µg/mL (≈ 12 µM) | MIC (Eubacterium sp.): 8 µg/mL (≈ 23.9 µM) | MIC (Veillonella sp. HM-49): 16 µg/mL (≈ 47.9 µM) | MIC (Corynebacterium spp.): 16 µg/mL (≈ 47.9 µM)
